“Also recorded” adds a separate entry of the source.
Tests used:
[1] = target: T1, purified soybean lipoxygenase (LOX-1) (Glycine max, UniProt P08170); test: Soybean lipoxygenase (LOX-1) inhibition, absorbance at 234 nm; assay type: biochemical; settings: as stated in embodiment b50; read-out: IC50 against purified soybean lipoxygenase
T1 construct: Soybean lipoxygenase (LOX-1) is purified according to the method of Axelrod et al; from tissue; host or cells: soybean seeds (Hardee variety), dehulled and defatted
T1 sequence (P08170 1-839): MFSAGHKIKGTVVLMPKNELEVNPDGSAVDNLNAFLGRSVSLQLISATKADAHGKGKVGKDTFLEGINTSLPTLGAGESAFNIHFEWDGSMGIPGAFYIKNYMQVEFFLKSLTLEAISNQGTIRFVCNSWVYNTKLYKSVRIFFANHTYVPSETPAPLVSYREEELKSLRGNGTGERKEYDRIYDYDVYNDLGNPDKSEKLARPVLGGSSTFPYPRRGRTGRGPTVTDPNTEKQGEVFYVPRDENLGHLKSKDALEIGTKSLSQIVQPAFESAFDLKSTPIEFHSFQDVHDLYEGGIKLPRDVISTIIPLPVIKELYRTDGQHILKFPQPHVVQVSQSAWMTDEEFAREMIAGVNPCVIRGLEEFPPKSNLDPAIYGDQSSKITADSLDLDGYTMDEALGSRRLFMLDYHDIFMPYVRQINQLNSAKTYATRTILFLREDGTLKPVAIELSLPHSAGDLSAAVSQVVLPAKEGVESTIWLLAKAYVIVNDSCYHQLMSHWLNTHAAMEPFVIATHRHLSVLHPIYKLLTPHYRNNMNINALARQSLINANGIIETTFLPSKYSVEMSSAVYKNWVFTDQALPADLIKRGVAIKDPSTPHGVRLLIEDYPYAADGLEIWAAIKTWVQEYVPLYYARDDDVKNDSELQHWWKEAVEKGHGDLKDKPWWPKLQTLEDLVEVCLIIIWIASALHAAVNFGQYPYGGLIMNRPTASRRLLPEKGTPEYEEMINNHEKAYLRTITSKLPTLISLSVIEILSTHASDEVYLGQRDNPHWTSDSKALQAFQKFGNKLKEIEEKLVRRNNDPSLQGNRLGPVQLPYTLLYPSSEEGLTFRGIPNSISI
Procedure: Soybean lipoxygenase (LOX-1) is purified according to the method of Axelrod et al., lipoxygenase from soybeans. Methods in Enzymology 1981, 71, 441–451, using the Hardee variety of soybean, after dehulling and defatting by hexane. The substrate, sodium linoleate (10 mM) is prepared as follows:
To 70 mg of linoleic acid an equal weight of Tween-20 and 4 ml of oxygen free water is added and homogenized by drawing back and forth in a pasture pipette, avoiding air bubbles. Sufficient quantity of 0.5 N NaOH is added to this to yield a clear solution. The resulting sodium linoleate is divided into 1–2 mL portions in small screw cap vials, flushed with N2 before closing, and keep frozen until needed. Enzyme reaction is carried out at 25° C. in a quartz cuvette with a 1 cm light path. The assay mixture contained (2.975−x) ml of borate buffer (0.2 M, pH 9.0), 0.025 ml of sodium linoleate substrate, and x mL of enzyme. After each addition the mixture is stirred with a few strokes of a plastic paddler. The reference cuvette contained no enzyme. Absorption at 234 nm is recorded, and the reaction rate is determined from the slope of the straight-line portion of the curve.

[2] = target: T2, crude rat lens aldose reductase (Rattus norvegicus, UniProt P07943); test: Rat lens aldose reductase inhibition, decrease in absorbance at 340 nm; assay type: biochemical; settings: as stated in embodiment b50; read-out: IC50 against crude rat lens aldose reductase
T2 construct: from tissue; host or cells: rat eye lens homogenate, 10,000 r.p.m. supernatant
Procedure: Lens are collected from rat eyes and homogenised with sodium, potassium phosphate buffer (0.135 M, pH 7.0) containing 0.5 mM of phenyl methyl sulphonyl fluoride and 10 mM of p-mercaptoethanol. The homogenate is centrifuged at 10,000 r.p.m for 30 minutes at 4° C. The supernatant is taken as enzyme source. Enzyme reaction is carried out at 25° C. in a quartz cuvette with a 1-cm light path. The assay mixture contained 100 μL of nicotinamide adenine dinucleotide phosphate tetra sodium salt (from a stock solution of 9.6 mM), 100 μL of DL-glyceraldehyde (from a stock solution of 250 mM), 10 μL of inhibitor dissolved in dimethyl sulphoxide, sodium-potassium-phosphate buffer (0.135 M, pH 7.0) to make up the total volume to […] and the reaction is initiated by the addition of 200 μL of enzyme solution. The enzyme reaction is monitored by the decrease in absorbency at 340 nm and compared with enzyme reaction without inhibitor.

Solubility in solvents = assay type: physicochemical
Excerpt: The compound is amorphous yellow powder.

IC50 [1]: 79 µM
IC50 [2]: 69 µM
solubility in organic solvents (Solubility in solvents; ethanol, methanol, ethyl acetate, dimethyl sulphoxide): soluble
solubility in aqueous alkaline solution (Solubility in solvents; sodium bicarbonate, sodium carbonate, sodium hydroxide solution (b24 also potassium bicarbonate, potassium carbonate, lithium hydroxide, potassium hydroxide)): soluble
solubility in water (Solubility in solvents; water): insoluble
Structure (SMILES): C/C=C/c1c(C)c(OC)c(C(=O)O)c(C(N)=O)c1O [compound 1, 2-amido, 3-hydroxy, 4-propene, 5-methyl, 6-methoxy benzoic acid]
solubility in chloroform and hexane (Solubility in solvents; chloroform, hexane): sparingly soluble; also recorded: slightly soluble
